{
  "source": "paper PMC3130785",
  "about": "“Small Compound 6-O-Angeloylplenolin Induces Mitotic Arrest and Exhibits Therapeutic Potentials in Multiple Myeloma” (PLoS ONE, 2011)",
  "key": {"[1]": {"test_system": "human colorectum, liver, stomach, lung, and skin tumor cells", "parameters": "method as in PMID 20183316", "settings": "preliminary data; cited from earlier work"}, "MM.1S cells": {"test_system": "MM.1S cells", "experiment": "MTT assay with IL-6, IGF-I or BMSCs", "assay_type": "cell-based, human", "settings": "48 h", "method": "(§1) U266, RPMI 8226 cells (1×10^4), primary CD138+ cells, PBMCs (5×10^4), and BMSCs (1×10^4) were cultured in 96-well dishes and incubated without or with 6-OAP at indicated concentration for 48 h. MM.1S and MM.1R cells (2×10^4) were seeded into 96-well dishes and pre-cultured for 24 h, then treated with 6-OAP for 48 h. Cell proliferation was determined by MTT assay. Cell viability was estimated by trypan blue dye exclusion.\nFigure 5 6-OAP overcomes the protective effects of IL-6, IGF-I and BMSCs on MM cells. (A and B) MM.1S cells were cultured for 48 h with indicated concentrations of 6-OAP at the presence or absence of IL-6 (A) or IGF-I (B). Cell proliferation was assessed by MTT assay. (C) MM.1S and/or BMSCs cells were cultured for 48 h with indicated concentrations of 6-OAP. Cell proliferation was assessed by MTT assay. *p<.01,** p<.05. (D) MM.1S cells were serum starved for 2 h, then co-cultured without or with 6-OAP at 5 µM for 12 h, followed by stimulation with IL-6 at 10 ng/ml for indicated time points (upper panel), or IL-6 at 10 ng/ml for 1 h, followed by treatment with 6-OAP at indicated concentration for 12 h (lower panel). Whole-cell extracts were prepared and examined by Western blotting using antibodies against pJak2, pStat3, Stat3 or β-actin. (E) MM.1S cells were serum starved for 2 h, then co-cultured without or with 6-OAP (5 µM) for 12 h, followed by stimulation with IGF-I at 50 ng/ml for indicated time points (upper panel), or stimulated with IGF-I at 50 ng/ml for 1 h, followed by treatment with 6-OAP at indicated concentration for 12 h (lower panel). Whole-cell extracts were prepared and examined by western blotting using antibodies against pPDK1, pAkt, Akt or β-actin. (F) MM.1S cells were serum starved for 2 h, then co-cultured without or with 6-OAP (5 µM) for 12 h, followed by stimulation with TNF-α at 5 ng/ml for indicated time points. Whole-cell extracts were prepared and examined by Western blotting using indicated antibodies."}, "pIκBα and pP65": {"test_system": "pIκBα and pP65", "experiment": "Western blotting, TNF-α stimulation", "assay_type": "cell-based, human", "settings": "MM.1S; 6-OAP 5 µM 12 h; TNF-α 5 ng/ml", "method": "(§2) Cell pellets were lysed in RIPA buffer containing 50 mM Tris pH 8.0, 150 mM NaCl, 0.1% SDS, 0.5% deoxycholate, 1% NP-40, 1 mM DTT, 1 mM NaF, 1 mM sodium vanadate, and protease inhibitors cocktail (Sigma). For immunoprecipitations, cells were lysed on ice for 15 minutes in RIPA buffer. Lysates were centrifuged. The supernatant was incubated with indicated antibodies overnight, after which protein A/G Plus beads (Santa Cruz Biotechnology) were added and incubated for 3 h. The beads were washed 4 times in RIPA buffer. Then the beads were resuspended in 1× sample buffer and boiled for 3 min. Protein extracts were quantitated and loaded on 8% to 12% sodium dodecyl sulfate polyacrylamide gel, electrophoresed, and transferred to a nitrocellulose membrane (Whatman). The membrane was incubated with primary antibody, washed, and incubated with horseradish peroxidase (HRP)–conjugated secondary antibody (Pierce). Detection was performed by using a chemiluminescent western detection kit (Cell Signaling). […]\nFigure 5 6-OAP overcomes the protective effects of IL-6, IGF-I and BMSCs on MM cells. […] Cell proliferation was assessed by MTT assay. […] Cell proliferation was assessed by MTT assay. *p<.01,** p<.05. […]"}, "cyclin D1": {"test_system": "cyclin D1", "experiment": "Western blotting", "assay_type": "cell-based, human", "settings": "U266 and MM1.S cells; 12 to 48 h", "method": "as §2\n(§3) Figure 3 6-OAP accumulates cyclin B1 which is required for mitotic arrest. […] After co-incubation with 6-OAP for 18 h, the cells were then harvested and detected by Leica DMI 400B microscope (D), or analyzed by flow cytometry for the cell cycle distribution (E). To evaluate cell growth, the cells were treated with 6-OAP for indicated time points and analyzed by trypan blue exclusion assay (F). […] (H) U266 cells were treated without or with 7.5 µM 6-OAP for 24 h, and stained with anti-α-tubulin and anti-BubR1 antibodies to visualize microtubules (green), BubR1 (red), and DAPI to counter stained DNA (blue), and analyzed by confocal microscopy. […]"}, "pCdc2 (Y15)": {"test_system": "pCdc2 (Y15)", "experiment": "Western blotting", "assay_type": "cell-based, human", "settings": "U266, MM.1S and CD138+ primary cells", "method": "as §2, §3"}, "cyclin B1": {"test_system": "cyclin B1", "experiment": "Western blotting", "assay_type": "cell-based, human", "settings": "U266, MM.1S and CD138+ primary cells", "method": "as §2, §3"}, "[2]": {"test_system": "U266, RPMI 8226, MM.1S, and MM.1R cells", "experiment": "MTT assay, MM cell lines together", "assay_type": "cell-based", "settings": "Homo sapiens, range over the four MM cell lines", "method": "as §1"}},
  "data": [
    {"smiles": "CC=C(C)C(=O)OC1C2C(CC(C)C3C=CC(=O)C31C)OC(=O)C2C", "note": "(stereo not drawn) [6-OAP, 6-O-angeloylplenolin]", "values": [
      {"measurement": "proliferation of tumor cells", "setting": "[1]", "result": "could inhibit proliferation"},
      {"measurement": "IGF-I-caused cell proliferation", "setting": "MM.1S cells; IGF-I 10 to 50 ng/ml, 6-OAP 5 to 7.5 µM", "result": "abolished IGF-I-caused cell proliferation"},
      {"measurement": "IL-6-promoted proliferation", "setting": "MM.1S cells; IL-6 2 to 10 ng/ml, 6-OAP 5 to 7.5 µM", "result": "drastically reversed this effect"},
      {"measurement": "BMSCs-facilitated MM.1S cell expansion", "setting": "MM.1S cells; co-incubation with BMSCs, 6-OAP 5 or 7.5 µM", "result": "significantly inhibited this effect"},
      {"measurement": "TNF-α-induced pIκBα and pP65", "setting": "pIκBα and pP65", "result": "inhibited phosphorylation"},
      {"measurement": "cyclin D1 level", "setting": "cyclin D1", "result": "down-regulated"},
      {"measurement": "pCdc2 (Y15) level", "setting": "pCdc2 (Y15)", "result": "decrease of tyrosine-15-phosphorylated Cdc2"},
      {"measurement": "cyclin B1 level", "setting": "cyclin B1", "result": "increase of cyclin B1"},
      {"measurement": "IC50", "setting": "[2]", "result": "3.5 to 9.2", "unit": "µM"}
    ]}
  ]
}
